From patent US8076487B2, “Pyridone derivative and herbicide” (Kumiai Chemical Industry Co., Ltd., priority 2006, dated 2011)

Experiments:
Format in all cases: in vivo
[1] = test system: early watergrass (Echinochloa oryzicola Vasing); experiment: Test Example 1: herbicidal effect by soil application to paddy field; settings: paddy field soil application; active ingredient 1,000 g per 1 hectare; wettable powder added dropwise to water surface the day after sowing; examined on the 21st day after application
In short: (§1)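 Plants were sown in flooded (3 cm) paddy soil and evaluated for herbicidal effect 21 days after soil application in a greenhouse.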

[2] = test system: Japanese bulrush (Scirpus juncoides Roxb.); experiment: as above; settings: paddy field soil application; active ingredient 1,000 g per 1 hectare; wettable powder added dropwise to water surface the day after sowing; examined on the 21st day after application
In short: as §1

[3] = test system: heartshape false pickerelweed (Monochoria vaginalis (Burm.f.) C.Presl); experiment: as above; settings: paddy field soil application; active ingredient 1,000 g per 1 hectare; wettable powder added dropwise to water surface the day after sowing; examined on the 21st day after application
In short: as §1

[4] = test system: velvetleaf (Abutilon theophrasti medicus); experiment: Test Example 3: herbicidal effect by application to upland field (foliage treatment); settings: 14th day after application; for herbicidal effect, Velvetleaf: foliage treatment, 1,000 g active ingredient per 1 hectare, greenhouse
In short: (§2)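 Field-soil pots sown with the four weed species and grown two weeks in a greenhouse, then sprayed over the whole plant with wettable powder in water at 1,000 g active ingredient/ha in 1,000 L/ha. Herbicidal effect scored against a rating standard 14 days after treatment.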

[5] = test system: green foxtail (Setaria viridis (L.) P. Beauv.); experiment: as above; settings: 14th day after application; for herbicidal effect, Green Foxtail: foliage treatment, 1,000 g active ingredient per 1 hectare, greenhouse
In short: as §2

[6] = test system: barnyardgrass (Echinochloa crus-galli (L.) P. Beauv. var. crus-galli); experiment: as above; settings: 14th day after application; for herbicidal effect, Barnyardgrass: foliage treatment, 1,000 g active ingredient per 1 hectare, greenhouse
In short: as §2

[7] = test system: slender amaranth (Amaranthus viridis L.); experiment: as above; settings: 14th day after application; for herbicidal effect, Slender Amaranth: foliage treatment, 1,000 g active ingredient per 1 hectare, greenhouse
In short: as §2

[8] = test system: velvetleaf (Abutilon theophrasti medicus); experiment: Test Example 2: herbicidal effect by soil application to upland field; settings: soil surface spray, upland field soil, 1,000 g active ingredient per hectare, 21st day after application
In short: (§3)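 Pots of field soil, seeds sown and soil-covered; wettable powder diluted in water sprayed on soil at 1,000 g a.i./ha (1,000 L/ha). Greenhouse-grown; herbicidal effect rated per standard at 21 days post-application.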

[9] = test system: green foxtail (Setaria viridis (L.) P. Beauv.); experiment: as above; settings: soil surface spray, upland field soil, 1,000 g active ingredient per hectare, 21st day after application
In short: as §3

[10] = test system: barnyardgrass (Echinochloa crus-galli (L.) P. Beauv. var. crus-galli); experiment: as above; settings: soil surface spray, upland field soil, 1,000 g active ingredient per hectare, 21st day after application
In short: as §3

[11] = test system: slender amaranth (Amaranthus viridis L.); experiment: as above; settings: soil surface spray, upland field soil, 1,000 g active ingredient per hectare, 21st day after application
In short: as §3

[12] = foliage treatment, plants grown two weeks, 1,000 g active ingredient per hectare

Row | SMILES | herbicidal effect, Echinochloa oryzicola Vasing [1] | herbicidal effect, Scirpus juncoides Roxb. [2] | herbicidal effect, Monochoria vaginalis (Burm. f.) C. Presl [3] | herbicidal effect (index), Velvetleaf [4, 12] | herbicidal effect (index), Green Foxtail [5, 12] | herbicidal effect (index), Barnyardgrass [6, 12] | herbicidal effect (index), Slender Amaranth [7, 12] | herbicidal effect (index), Velvetleaf [8] | herbicidal effect (index), Green Foxtail [9] | herbicidal effect (index), Barnyardgrass [10] | herbicidal effect (index), Slender Amaranth [11] | herbicidal effect, Velvetleaf [4] | herbicidal effect, Green Foxtail [5] | herbicidal effect, Barnyardgrass [6] | herbicidal effect, Slender Amaranth [7]
1 | C[S+]([O-])c1cccc(-n2c(C(F)(F)F)ccc(C(=O)C3=C(O)CCCC3=O)c2=O)c1 (stereo not drawn) [I-81] | 5 (90% or more of herbicidal effect and crop phytotoxicity) | 5 (90% or more of herbicidal effect and crop phytotoxicity) | 5 (90% or more of herbicidal effect and crop phytotoxicity) | 5 (90% or more of herbicidal effect and crop phytotoxicity) | 5 (90% or more of herbicidal effect and crop phytotoxicity) | 5 (90% or more of herbicidal effect and crop phytotoxicity) | 5 (90% or more of herbicidal effect and crop phytotoxicity) | 5 (90% or more of herbicidal effect and crop phytotoxicity) | 5 (90% or more of herbicidal effect and crop phytotoxicity) | 5 (90% or more of herbicidal effect and crop phytotoxicity) | 5 (90% or more of herbicidal effect and crop phytotoxicity) |  |  |  | 
2 | COCc1cc(-n2c(C(F)(F)F)ccc(C(=O)c3cnn(C)c3O)c2=O)ccc1F [IV-95] | 5 (90% or more of herbicidal effect and crop phytotoxicity) | 5 (90% or more of herbicidal effect and crop phytotoxicity) | 5 (90% or more of herbicidal effect and crop phytotoxicity) |  |  |  |  | 5 (90% or more of herbicidal effect and crop phytotoxicity) | 5 (90% or more of herbicidal effect and crop phytotoxicity) | 5 (90% or more of herbicidal effect and crop phytotoxicity) | 5 (90% or more of herbicidal effect and crop phytotoxicity) | 5 (90% or more of herbicidal effect and crop phytotoxicity) | 5 (90% or more of herbicidal effect and crop phytotoxicity) | 5 (90% or more of herbicidal effect and crop phytotoxicity) | 5 (90% or more of herbicidal effect and crop phytotoxicity)
3 | CCn1c(C(F)(F)F)ccc(C(=O)C2=C(Sc3ccccc3)C3CCC(C3)C2=O)c1=O (stereo not drawn) [III-15] | 5 (90% or more of herbicidal effect and crop phytotoxicity) | 5 (90% or more of herbicidal effect and crop phytotoxicity) | 5 (90% or more of herbicidal effect and crop phytotoxicity) |  |  |  |  | 5 (90% or more of herbicidal effect and crop phytotoxicity) | 5 (90% or more of herbicidal effect and crop phytotoxicity) | 5 (90% or more of herbicidal effect and crop phytotoxicity) | 5 (90% or more of herbicidal effect and crop phytotoxicity) | 5 (90% or more of herbicidal effect and crop phytotoxicity) | 5 (90% or more of herbicidal effect and crop phytotoxicity) | 5 (90% or more of herbicidal effect and crop phytotoxicity) | 5 (90% or more of herbicidal effect and crop phytotoxicity)
4 | COCCOCCn1c(C(F)(F)F)ccc(C(=O)C2=C(O)C3CCC(C3)C2=O)c1=O (stereo not drawn) [III-23] | 5 (90% or more of herbicidal effect and crop phytotoxicity) | 5 (90% or more of herbicidal effect and crop phytotoxicity) | 5 (90% or more of herbicidal effect and crop phytotoxicity) |  |  |  |  | 5 (90% or more of herbicidal effect and crop phytotoxicity) | 5 (90% or more of herbicidal effect and crop phytotoxicity) | 5 (90% or more of herbicidal effect and crop phytotoxicity) | 5 (90% or more of herbicidal effect and crop phytotoxicity) | 5 (90% or more of herbicidal effect and crop phytotoxicity) | 5 (90% or more of herbicidal effect and crop phytotoxicity) | 5 (90% or more of herbicidal effect and crop phytotoxicity) | 5 (90% or more of herbicidal effect and crop phytotoxicity)
5 | Cc1ccc(-n2c(C(F)(F)F)ccc(C(=O)C3=C(O)C4CCC(C4)C3=O)c2=O)cc1 (stereo not drawn) [III-35] | 5 (90% or more of herbicidal effect and crop phytotoxicity) | 5 (90% or more of herbicidal effect and crop phytotoxicity) | 5 (90% or more of herbicidal effect and crop phytotoxicity) |  |  |  |  | 5 (90% or more of herbicidal effect and crop phytotoxicity) | 5 (90% or more of herbicidal effect and crop phytotoxicity) | 5 (90% or more of herbicidal effect and crop phytotoxicity) | 5 (90% or more of herbicidal effect and crop phytotoxicity) | 5 (90% or more of herbicidal effect and crop phytotoxicity) | 5 (90% or more of herbicidal effect and crop phytotoxicity) | 5 (90% or more of herbicidal effect and crop phytotoxicity) | 5 (90% or more of herbicidal effect and crop phytotoxicity)
6 | CCCS(=O)(=O)Oc1c(C(=O)c2ccc(C(F)(F)F)n(C3CC3)c2=O)cnn1C [IV-19] | 5 (90% or more of herbicidal effect and crop phytotoxicity) | 5 (90% or more of herbicidal effect and crop phytotoxicity) | 5 (90% or more of herbicidal effect and crop phytotoxicity) |  |  |  |  | 5 (90% or more of herbicidal effect and crop phytotoxicity) | 5 (90% or more of herbicidal effect and crop phytotoxicity) | 5 (90% or more of herbicidal effect and crop phytotoxicity) | 5 (90% or more of herbicidal effect and crop phytotoxicity) | 5 (90% or more of herbicidal effect and crop phytotoxicity) | 5 (90% or more of herbicidal effect and crop phytotoxicity) | 5 (90% or more of herbicidal effect and crop phytotoxicity) | 5 (90% or more of herbicidal effect and crop phytotoxicity)
